What was measured:
Conditions in all cases: 72 h
Caco-2 [1] = test: drug sensitivity score (DSS) for viability; higher = more toxic; extreme values may be limits of the assay
Vero E6 [2] = test: as above
HepG2 [3] = test: as above
U2OS [4] = test: as above
Calu-3 [5] = test: as above
Caco-2 [6] = test: cell viability relative to DMSO; higher = less toxic
Vero E6 [7] = test: as above
HepG2 [8] = test: as above
U2OS [9] = test: as above
Calu-3 [10] = test: as above
Caco-2 [11] = test: relative viability EC50 (midpoint between 100% and the lowest measured viability); higher = less toxic
Vero E6 [12] = test: as above
HepG2 [13] = test: as above
U2OS [14] = test: as above
Calu-3 [15] = test: as above

Structure (SMILES)	drug sensitivity score (Caco-2 [1])	drug sensitivity score (Vero E6 [2])	drug sensitivity score (HepG2 [3])	drug sensitivity score (U2OS [4])	drug sensitivity score (Calu-3 [5])	cell viability (Caco-2 [6]; 1 nM) [%]	cell viability (Caco-2 [6]; 10 nM) [%]	cell viability (Caco-2 [6]; 100 nM) [%]	cell viability (Caco-2 [6]; 1000 nM) [%]	cell viability (Caco-2 [6]; 10000 nM) [%]	cell viability (Vero E6 [7]; 1 nM) [%]	cell viability (Vero E6 [7]; 10 nM) [%]	cell viability (Vero E6 [7]; 100 nM) [%]	cell viability (Vero E6 [7]; 1000 nM) [%]	cell viability (Vero E6 [7]; 10000 nM) [%]	cell viability (HepG2 [8]; 1 nM) [%]	cell viability (HepG2 [8]; 10 nM) [%]	cell viability (HepG2 [8]; 100 nM) [%]	cell viability (HepG2 [8]; 1000 nM) [%]	cell viability (HepG2 [8]; 10000 nM) [%]	cell viability (U2OS [9]; 1 nM) [%]	cell viability (U2OS [9]; 10 nM) [%]	cell viability (U2OS [9]; 100 nM) [%]	cell viability (U2OS [9]; 1000 nM) [%]	cell viability (U2OS [9]; 10000 nM) [%]	cell viability (Calu-3 [10]; 1 nM) [%]	cell viability (Calu-3 [10]; 10 nM) [%]	cell viability (Calu-3 [10]; 100 nM) [%]	cell viability (Calu-3 [10]; 1000 nM) [%]	cell viability (Calu-3 [10]; 10000 nM) [%]	relative viability EC50 (Caco-2 [11]) [µM]	relative viability EC50 (Vero E6 [12]) [µM]	relative viability EC50 (HepG2 [13]) [µM]	relative viability EC50 (U2OS [14]) [µM]	relative viability EC50 (Calu-3 [15]) [µM]
COc1cc(C=O)ccc1O [vanillin]	0	0	0	0	0	92.8	90	96	104	96.6	92	91.5	89.7	89	105	99.9	91.9	102	115	97.4	96.1	104	95.1	104	99.1	97.5	107	109	99.8	105	> 10	> 10	> 10	> 10	> 10
CNC1CC(c2ccc(Cl)c(Cl)c2)c2ccccc21 (stereo not given) [indatraline]	0.1	0	0	0	0	99.7	103	95	103	86.8	99.4	95.4	96.4	99.4	91.7	97.6	96	96.4	99	92.7	100	102	94	102	90.1	102	96.3	93	107	89	> 10	> 10	> 10	> 10	> 10
CNC(=O)c1ccc2cc([C@@]3(O)CCn4cncc43)ccc2c1 [orteronel]	0	0	0	0	0	88.1	91.3	94.2	99.8	96.6	99.7	104	99.8	100	94.6	103	104	90.1	104	90	99.8	99	101	99	98.9	102	108	99.4	105	108	> 10	> 10	> 10	> 10	> 10
CC(=O)c1ccc(NS(C)(=O)=O)c(Oc2ccc(F)cc2F)c1 [FK-3311]	0	0	0.1	0	0	99	90.1	96.9	94	95.8	98.3	101	96.2	102	92.8	98.3	107	98.6	99.5	87.3	104	98.1	98.7	97.2	102	110	93.1	103	109	114	> 10	> 10	> 10	> 10	> 10
Cc1nc(Nc2ncc(C(=O)Nc3c(C)cccc3Cl)s2)cc(N2CCN(CCO)CC2)n1 [dasatinib]	12.9	15.9	6.2	10.3	24.7	101	97.6	77	45.5	33.2	99	93.1	76.1	29.6	16.9	102	99	87.1	80.6	30.1	100	93.9	85	53.9	36.8	95.1	72	36.6	30.2	18.1	0.201	0.218	1.62	0.33	0.0245
COc1ccc(Cl)cc1C(=O)NCCc1ccc(C(=O)O)cc1 [meglitinide]	0	0	0.3	0	0	90.9	102	94.8	91.5	98.1	98.4	105	100	104	103	109	106	110	88.7	94.2	101	98.2	98.6	93.4	99.6	108	103	98.1	96.8	114	> 10	> 10	> 10	> 10	> 10
Cc1c(F)cc(C(=O)NC2CC2)cc1-c1c(F)cn2c(C(C)(C)C)nnc2c1F [AL-8697]	0	1.4	0	0	0	95.4	93.5	97.7	93.4	95.3	95.8	100	93.9	86.3	87	96.5	105	90.9	105	94.7	98.9	95.9	94.1	93.1	93.7	95.7	99.2	97	88.4	102	> 10	> 10	> 10	> 10	> 10
Nc1nc(OCc2cc(Br)cs2)c2[nH]cnc2n1 [lomeguatrib]	0	0	0	0	0	96.9	90.9	110	96.1	100	105	104	95.4	102	99.9	87.7	99.9	84	98.8	100	101	94.6	106	100	99.7	106	103	95.8	102	93	> 10	> 10	> 10	> 10	> 10
CCCNC(=O)Nc1ccc(Oc2ncnc3cc(OC)c(OC)cc23)cc1Cl [KRN-633]	0	0	0	0	0	92.8	98.5	86.6	93	90.8	101	103	104	105	99.2	103	90.5	100	92.1	94.5	96.8	97.7	96	97	93.4	100	101	95.4	101	97.4	> 10	> 10	> 10	> 10	> 10
CN(C)c1ccc(C(=C2C=CC(=[N+](C)C)C=C2)c2ccc(N(C)C)cc2)cc1 [crystal-violet]	16.9	16.9	15.7	15.6	13.3	86.3	94.9	80.9	21.4	4.4	96	89.5	100	6.8	-0.4	112	89.9	111	10.7	3.6	96.6	100	96.4	17.4	-0.4	100	94	104	31.5	2.1	0.295	0.383	0.432	0.477	0.715
C=CCNC1=C2C[C@@H](C)C[C@H](OC)[C@H](O)[C@@H](C)/C=C(\C)[C@H](OC(N)=O)[C@@H](OC)/C=C\C=C(/C)C(=O)NC(=CC1=O)C2=O [tanespimycin]	7.7	9.8	33.3	21	13.5	93.6	98.8	101	71.8	29.2	108	100	104	51.4	26.5	113	80.2	1.9	1.3	2.2	101	102	73.2	4.8	1.8	108	105	83.3	40.2	38.2	1.18	0.768	0.0174	0.164	0.161
Cc1cc(N2CCCCC2)nc2ccccc12 [ML204]	0	0	0	0	0	87.9	97.4	84.3	96.2	87.9	91.7	92.7	87.3	92.2	103	92	93.5	88.8	104	102	99.7	98.4	96.9	102	101	113	95.5	101	107	110	> 10	> 10	> 10	> 10	> 10
N[C@@H](CSCCCO)C(=O)O [fudosteine]	0	0	0	0	0	96.1	93.9	97.3	97.2	106	97.7	92.7	99.6	94.1	100	93.1	83.3	96.1	88.8	105	96.4	101	97.2	102	108	102	111	107	96.8	115	> 10	> 10	> 10	> 10	> 10
CN1CCC(=C2c3ccccc3Sc3ccccc32)CC1 [pimethixene]	0	0	1.2	0	0	100	89.7	96.9	101	102	103	101	106	105	98.4	108	98.9	121	84.7	92.1	103	97.8	102	99	95.5	103	105	100	100	101	> 10	> 10	> 10	> 10	> 10

Reference: the supplement of paper PMC13380429
